{"source": "ChEMBL document CHEMBL1153133", "about": "“2,4-Diaminopyrimidine MK2 inhibitors. Part I: Observation of an unexpected inhibitor binding mode” (Bioorg Med Chem Lett, 2010)", "key": {"[1]": {"target": "T1, MAP kinase-activated protein kinase 2 (Homo sapiens, UniProt P49137)", "T1 sequence (P49137 whole entry)": "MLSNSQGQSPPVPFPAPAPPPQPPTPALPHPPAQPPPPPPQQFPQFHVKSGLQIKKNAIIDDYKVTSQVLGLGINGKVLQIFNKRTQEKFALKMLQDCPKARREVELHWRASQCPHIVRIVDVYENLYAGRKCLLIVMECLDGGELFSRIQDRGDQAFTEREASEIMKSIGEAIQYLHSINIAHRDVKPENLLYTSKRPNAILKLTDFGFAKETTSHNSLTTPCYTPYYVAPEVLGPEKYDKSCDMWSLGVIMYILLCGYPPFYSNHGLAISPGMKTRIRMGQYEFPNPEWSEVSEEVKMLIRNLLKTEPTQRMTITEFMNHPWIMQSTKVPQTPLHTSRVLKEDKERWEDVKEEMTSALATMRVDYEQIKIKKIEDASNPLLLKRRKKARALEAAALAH", "assay": "Displacement of [8-3H]ATP from human recombinant MK2 (41-364) by scintillation proximity assay"}, "[2]": {"target": "T1, MAP kinase-activated protein kinase 2", "assay": "Inhibition of human recombinant phospho-MK2 (36-400) by HTRF assay"}, "[3]": {"target": "T1, MAP kinase-activated protein kinase 2", "assay": "Displacement of [8-3H]ATP from human recombinant MK2 (36-400) by scintillation proximity assay"}}}
{"smiles": "Nc1ncnc2c1ncn2[C@@H]1O[C@H](COP(=O)(O)OP(=O)(O)OP(=O)(O)O)[C@@H](O)[C@H]1O", "note": "(single isomer, unassigned) [ADENOSINE TRIPHOSPHATE]", "values": [{"measurement": "IC50", "setting": "[1]", "result": 12, "unit": "µM"}, {"measurement": "IC50", "setting": "[2]", "result": 2.8, "unit": "µM"}, {"measurement": "IC50", "setting": "[3]", "result": 6.3, "unit": "µM"}]}
